Data as given in patent US20240366487A1, “ANTI-AGING COMPOSITIONS FOR SENSITIVE SKIN” (Baek Clinical Inc., priority 2023, published 2024).

Test system: skin of human subjects
Assay: Human Repeat Insult Patch Testing (HRIPT)
Assay type: in vivo
Conditions: positive control, 71 subjects
Experimental: The study duration was 6 weeks and 71 male and female subjects, ranging in age from 18 to 65, completed the study. Subjects were requested to bathe or wash as usual before arrival at the facility Patches containing the test material were then affixed directly to the skin of the intrascapular regions of the back, to the right or left of the midline and subjects were dismissed with instructions not to wet or expose the test area to direct sunlight. Patches remained in place for 48 hours after the first application. Subjects were instructed not to remove the patches prior to their 48-hour scheduled visit, thereafter, subjects were instructed to remove patches 24 hours after application for the remainder of the study. […] Prior to each reapplication, the test sites were evaluated by trained laboratory personnel. Following a 10-14 day rest period a retest/challenge dose was applied once to a previously unexposed test site. Test sites were evaluated by trained laboratory personnel 48 and 96 hours after application. In the event of a reaction, the area of erythema and edema were measured. Edema is estimated by the evaluation of the skin with respect to the contour of the unaffected normal skin. Subjects were instructed to report any delayed reactions that might occur after the final reading.

CCCCCCCCCCCCOS(=O)(=O)[O-].[Na+] [1.0% Sodium Lauryl Sulfate Solution, Sodium Lauryl Sulfate]
subjects with a Grade 1 reaction: 3 subjects
subjects with a Grade 2 reaction: 1 subject
